We go through 30 molecules from patent publication US9593110B2, “Neprilysin inhibitors” (Theravence Biopharma R&D IP, LLC, priority 2014, dated 2017).

In the assay the target is human NEP (Homo sapiens (Human), UniProt P08473). Put plainly: In vitro enzyme inhibition assay at human NEP. The note with it: recombinant human NEP, fluorogenic peptide substrate, 37° C.; for Ki: pKi.
human NEP, sequence (P08473 52-750): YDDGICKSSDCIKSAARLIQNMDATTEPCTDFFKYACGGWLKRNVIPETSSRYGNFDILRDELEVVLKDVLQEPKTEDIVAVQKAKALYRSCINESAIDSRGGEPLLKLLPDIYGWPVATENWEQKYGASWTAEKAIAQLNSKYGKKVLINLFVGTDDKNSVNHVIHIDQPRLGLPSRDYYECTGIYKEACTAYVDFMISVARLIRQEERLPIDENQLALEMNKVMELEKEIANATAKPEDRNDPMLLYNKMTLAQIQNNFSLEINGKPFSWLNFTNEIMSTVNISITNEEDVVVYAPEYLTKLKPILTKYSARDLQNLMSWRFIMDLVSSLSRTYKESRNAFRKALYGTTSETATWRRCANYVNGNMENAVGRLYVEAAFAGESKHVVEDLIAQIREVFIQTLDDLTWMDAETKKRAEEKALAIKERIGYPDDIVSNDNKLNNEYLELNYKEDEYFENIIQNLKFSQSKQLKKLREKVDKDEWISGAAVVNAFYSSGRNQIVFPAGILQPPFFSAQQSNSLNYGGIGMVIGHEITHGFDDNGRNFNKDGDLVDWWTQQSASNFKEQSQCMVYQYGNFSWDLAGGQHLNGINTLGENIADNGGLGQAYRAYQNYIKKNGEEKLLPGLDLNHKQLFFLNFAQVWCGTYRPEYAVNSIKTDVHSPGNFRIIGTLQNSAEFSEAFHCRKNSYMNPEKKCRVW

Consider `N[C@H](C[C@@H](Cc1ccc(-c2cc(Cl)ccc2F)cc1)NC(=O)c1ncccn1)C(=O)O` [Example 16-29, (2R,4R)-2-Amino-5-(5′-chloro-2′-fluorobiphenyl-4-yl)-4-[(pyrimidine-2-carbonyl)-amino]pentanoic acid], for which the pKi entry was “≧9.0”. Still for that read-out and setting: the value for `N[C@H](C[C@@H](Cc1ccc(-c2cc(Cl)ccc2F)cc1)NC(=O)c1coc(=O)[nH]1)C(=O)O` [Example 16-31, (2R,4R)-2-Amino-5-(5′-chloro-2′-fluorobiphenyl-4-yl)-4-[(2-oxo-2,3-dihydro-oxazole-4-carbonyl)amino]pentanoic acid] was “≧9.0”; that for `N[C@H](C[C@@H](Cc1ccc(-c2cc(Cl)ccc2F)cc1)NC(=O)c1cc(-c2cnccn2)n[nH]1)C(=O)O` [Example 16-33, (2R,4R)-2-Amino-5-(5′-chloro-2′-fluorobiphenyl-4-yl)-4-[(5-pyrazin-2-yl-2H-pyrazole-3-carbonyl)amino]pentanoic acid] was “≧9.0”; that for `N[C@H](C[C@@H](Cc1ccc(-c2cc(Cl)ccc2F)cc1)NC(=O)c1nn(-c2ccccc2)c(=O)[nH]1)C(=O)O` [Example 16-35, (2R,4R)-2-Amino-5-(5′-chloro-2′-fluorobiphenyl-4-yl)-4-[(5-oxo-1-phenyl-4,5-dihydro-1H-[1,2,4]triazole-3-carbonyl)amino]p entanoic acid] was “≧9.0”. On to `CC(C)c1coc(C(=O)N[C@H](Cc2ccc(-c3cc(Cl)ccc3F)cc2Cl)C[C@@H](N)C(=O)O)n1` [Example 17, (2R,4R)-2-Amino-5-(3,5′-dichloro-2′-fluorobiphenyl-4-yl)-4-[(4-isopropyloxazole-2-carbonyl)amino]pentanoic Acid], for which the Ki was at most 1 nM. The same measure, in the same setting: the value for `CC(C)c1coc(C(=O)N[C@H](Cc2ccc(-c3cc(Cl)ccc3F)cc2Cl)C[C@H](N)C(=O)O)n1` [Example 18-1, (2S,4R)-2-Amino-5-(3,5′-dichloro-2′-fluorobiphenyl-4-yl)-4-[(4-isopropyloxazole-2-carbonyl)amino]pentanoic acid] was 3.16 to 10 nM.

As to `CCCc1nc(C(=O)N[C@H](Cc2ccc(-c3cc(Cl)ccc3F)cc2Cl)C[C@@H](N)C(=O)O)co1` [Example 18-2, (2R,4R)-2-Amino-5-(3,5′-dichloro-2′-fluorobiphenyl-4-yl)-4-[(2-propyloxazole-4-carbonyl)amino]pentanoic acid], the pKi entry is “≧9.0”. Same read-out and setting: the value for `Cc1cnc(C(=O)N[C@H](Cc2ccc(-c3cc(Cl)ccc3F)cc2Cl)C[C@@H](N)C(=O)O)o1` [Example 18-3, (2R,4R)-2-Amino-5-(3,5′-dichloro-2′-fluorobiphenyl-4-yl)-4-[(5-methyloxazole-2-carbonyl)amino]pentanoic acid] was “≧9.0”. On to `Cc1cnc(C(=O)N[C@H](Cc2ccc(-c3cc(Cl)ccc3F)cc2Cl)C[C@H](N)C(=O)O)o1` [Example 18-4, (2S,4R)-2-Amino-5-(3,5′-dichloro-2′-fluorobiphenyl-4-yl)-4-[(5-methyloxazole-2-carbonyl)amino]pentanoic acid], for which the Ki is 3.16 to 10 nM. Still for that read-out and setting: then `CCc1cc(C(=O)N[C@H](Cc2ccc(-c3cc(Cl)ccc3F)cc2Cl)C[C@@H](N)C(=O)O)on1` [Example 18-5, (2R,4R)-2-Amino-5-(3,5′-dichloro-2′-fluorobiphenyl-4-yl)-4-[(3-ethylisoxazole-5-carbonyl)amino]pentanoic acid], with 1.26 to 3.16 nM. As to `CCc1cc(C(=O)N[C@H](Cc2ccc(-c3cc(Cl)ccc3F)cc2Cl)C[C@H](N)C(=O)O)on1` [Example 18-6, (2S,4R)-2-Amino-5-(3,5′-dichloro-2′-fluorobiphenyl-4-yl)-4-[(3-ethylisoxazole-5-carbonyl)amino]pentanoic acid], the pKi entry was “≧9.0”.

As to `COCc1cc(C(=O)N[C@H](Cc2ccc(-c3cc(Cl)ccc3F)cc2Cl)C[C@@H](N)C(=O)O)no1` [Example 18-7, (2R,4R)-2-Amino-5-(3,5′-dichloro-2′-fluorobiphenyl-4-yl)-4-[(5-methoxymethylisoxazole-3-carbonyl)amino]pentanoic acid], the Ki was in the range of 10 to 31.6 nM.

Regarding `COCc1cc(C(=O)N[C@H](Cc2ccc(-c3cc(Cl)ccc3F)cc2Cl)C[C@H](N)C(=O)O)no1` [Example 18-8, (2S,4R)-2-Amino-5-(3,5′-dichloro-2′-fluorobiphenyl-4-yl)-4-[(5-methoxymethylisoxazole-3-carbonyl)amino]pentanoic acid], the pKi result was “≧9.0”. Turning to `N[C@H](C[C@@H](Cc1ccc(-c2cc(Cl)ccc2F)cc1Cl)NC(=O)c1cc(C2CC2)on1)C(=O)O` [Example 18-9, (2R,4R)-2-Amino-4-[(5-cyclopropyl-isoxazole-3-carbonyl)-amino]-5-(3,5′-dichloro-2′-fluorobiphenyl-4-yl)pentanoic acid], the Ki fell in the range of 3.16 to 10 nM. For `N[C@@H](C[C@@H](Cc1ccc(-c2cc(Cl)ccc2F)cc1Cl)NC(=O)c1cc(C2CC2)on1)C(=O)O` [Example 18-10, (2S,4R)-2-Amino-4-[(5-cyclopropyl-isoxazole-3-carbonyl)-amino]-5-(3,5′-dichloro-2′-fluorobiphenyl-4-yl)pentanoic acid], the pKi result was “≧9.0”.

In the case of `COc1cnc(C(=O)N[C@H](Cc2ccc(-c3cc(Cl)ccc3F)cc2Cl)C[C@@H](N)C(=O)O)o1` [Example 18-11, (2R,4R)-2-Amino-5-(3,5′-dichloro-2′-fluoro-biphenyl-4-yl)-4-[(5-methoxyoxazole-2-carbonyl)amino]pentanoic acid], the pKi result is on record as “≧9.0”. For the molecule `COc1cnc(C(=O)N[C@H](Cc2ccc(-c3cc(Cl)ccc3F)cc2Cl)C[C@H](N)C(=O)O)o1` [Example 18-12, (2S,4R)-2-Amino-5-(3,5′-dichloro-2′-fluoro-biphenyl-4-yl)-4-[(5-methoxyoxazole-2-carbonyl)amino]pentanoic acid], the Ki was in the range of 3.16 to 10 nM. Regarding `NC[C@H](C[C@@H](Cc1ccc(-c2cc(Cl)ccc2F)cc1)NC(=O)c1c[nH]nn1)C(=O)O` [Example 20, (2S,4S)-2-Aminomethyl-5-(5′-chloro-2′-fluorobiphenyl-4-yl)-4-[(1H-[1,2,3]triazole-4-carbonyl)amino]pentanoic Acid], the pKi result is “≧9.0”. `NC[C@H](C[C@@H](Cc1ccc(-c2cc(Cl)ccc2F)cc1)NC(=O)c1coc(C2CC2)n1)C(=O)O` [Example 21-2, (2S,4S)-2-Aminomethyl-5-(5′-chloro-2′-fluorobiphenyl-4-yl)-4-[(2-cyclopropyl-oxazole-4-carbonyl)amino]pentanoic acid]: the Ki was in the range of 1.26 to 3.16 nM. Turning to `Cc1cnc(C(=O)N[C@H](Cc2ccc(-c3cc(Cl)ccc3F)cc2)C[C@@H](CN)C(=O)O)o1` [Example 21-3, (2S,4S)-2-Aminomethyl-5-(5′-chloro-2′-fluorobiphenyl-4-yl)-4-[(5-methyl-oxazole-2-carbonyl)amino]pentanoic acid], the pKi entry is on record as “≧9.0”. Take `CCOc1nc(C(=O)N[C@H](Cc2ccc(-c3cc(Cl)ccc3F)cc2)C[C@@H](CN)C(=O)O)co1` [Example 21-4, (2S,4S)-2-Aminomethyl-5-(5′-chloro-2′-fluorobiphenyl-4-yl)-4-[(2-ethoxy-oxazole-4-carbonyl)amino]pentanoic acid]: the Ki was 1.26 to 3.16 nM. For the molecule `Cc1nc(C(=O)N[C@H](Cc2ccc(-c3cc(Cl)ccc3F)cc2)C[C@@H](CN)C(=O)O)co1` [Example 21-5, (2S,4S)-2-Aminomethyl-5-(5′-chloro-2′-fluorobiphenyl-4-yl)-4-[(2-methyloxazole-4-carbonyl)amino]pentanoic acid], the Ki fell in the range of 1.26 to 3.16 nM. Still for that read-out and setting: then `Cc1cc(C(=O)N[C@H](Cc2ccc(-c3cc(Cl)ccc3F)cc2)C[C@@H](CN)C(=O)O)sn1` [Example 21-6, (2S,4S)-2-Aminomethyl-5-(5′-chloro-2′-fluorobiphenyl-4-yl)-4-[(3-methylisothiazole-5-carbonyl)amino]pentanoic acid], with 1.26 to 3.16 nM; and `NC[C@H](C[C@@H](Cc1ccc(-c2cc(Cl)ccc2F)cc1)NC(=O)c1cnsc1)C(=O)O` [Example 21-7, (2S,4S)-2-Aminomethyl-5-(5′-chloro-2′-fluorobiphenyl-4-yl)-4-[(isothiazole-4-carbonyl)amino]pentanoic acid], with 1.26 to 3.16 nM. On the same count and under the same terms, the value for `NC[C@H](C[C@@H](Cc1ccc(-c2ccccc2)cc1)NC(=O)c1c[nH]nn1)C(=O)O` [Example 22, (2S,4S)-2-Aminomethyl-5-biphenyl-4-yl-4-[(1H-[1,2,3]triazole-4-carbonyl)amino]pentanoic Acid] was 1.26 to 3.16 nM. The same measure, in the same setting: then `Cc1cnc(C(=O)N[C@H](Cc2ccc(-c3cc(Cl)ccc3F)cc2)C[C@@H](CCN)C(=O)O)o1` [Example 23, (2R,4S)-2-(2-Aminoethyl)-5-(5′-chloro-2′-fluorobiphenyl-4-yl)-4-[(5-methyloxazole-2-carbonyl)amino]pentanoic Acid], with 1.26 to 3.16 nM.

For the molecule `CC(C)c1coc(C(=O)N[C@H](Cc2ccc(-c3cc(Cl)ccc3F)cc2)C[C@@H](CCN)C(=O)O)n1` [Example 24-1, (2R,4S)-2-(2-Aminoethyl)-5-(5′-chloro-2′-fluorobiphenyl-4-yl)-4-[(4-isopropyloxazole-2-carbonyl)amino]pentanoic acid], the Ki was 3.16 to 10 nM. Same read-out and setting: the value for `NCC[C@H](C[C@@H](Cc1ccc(-c2cc(Cl)ccc2F)cc1)NC(=O)c1cnn[nH]1)C(=O)O` [Example 24-2, (2R,4S)-2-(2-Aminoethyl)-5-(5′-chloro-2′-fluorobiphenyl-4-yl)-4-[(3H-[1,2,3]triazole-4-carbonyl)amino]pentanoic acid] was 1.26 to 3.16 nM; that for `CC(=O)N[C@H](C[C@@H](Cc1ccc(-c2ccccc2F)cc1)NC(=O)c1c[nH]nn1)C(=O)O` [Example 25, (2R,4R)-2-Acetylamino-5-(2′-fluorobiphenyl-4-yl)-4-[(1H-[1,2,3]triazole-4-carbonyl)amino]pentanoic Acid] was 3.16 to 10 nM.

`CC(=O)N[C@H](C[C@@H](Cc1ccc(-c2ccccc2)cc1)NC(=O)c1c[nH]nn1)C(=O)O` [Example 26, (2R,4R)-2-Acetylamino-5-biphenyl-4-yl-4-[(1H-[1,2,3]triazole-4-carbonyl)amino]pentanoic Acid]: the Ki lay in the range of 3.16 to 10 nM.

In general, Ki refers to a dissociation constant, usually derived from enzyme kinetics or from competition with a known ligand.
